Data on 1 compound can be found in patent US8071629B2, “2-pyridinylcycloalkylcarboxamide derivatives as fungicides” (Bayer Cropscience AG, priority 2005, dated 2011).

This test concerns Sphaerotheca fuliginea. The experiment in a line: In vivo test on Sphaerotheca fuliginea (powdery mildew). The following applies: gherkin plants, preventive spray 24 h before contamination, dose 600 g/ha, grading 13 days after contamination vs control plants. Here is the method:
The active ingredients tested are prepared by homogenization in a mixture of DMSO (dimethylsulfoxide)/acetone/tween/water. This suspension is then diluted with water to obtain the desired active material concentration.
Gherkin plants (Vert petit de Paris variety) in starter cups, sown on a 50/50 peat soil-pozzolana substrate and grown at 20° C./23° C., are treated at cotyledons stage by spraying with the aqueous suspension described above. Plants, used as controls, are treated with an aqueous solution not containing the active material.
After 24 hours, the plants are contaminated by spraying them with an aqueous suspension of Sphaerotheca fuliginea spores (100 000 spores per ml). The spores are collected from a contaminated plants. The contaminated gerkhin plants are incubated at about 20° C./25° C. and at 60/70% relative humidity.
Grading (% of efficacy) is carried out 13 days after the contamination, in comparison with the control plants.

In the case of `Cn1cc(C(=O)N[C@@H]2CCCC[C@@H]2c2ncc(Cl)cc2Cl)c(C(F)F)n1` (relative stereo) [Compound A-2, N-{2-[3,5-dichloro-2-pyridinyl]cis-cyclohexyl}1-methyl-3-(difluoromethyl)-1H-pyrazole-4-carboxamide], the “protection, % of efficacy (good, at least 70%)” value is given as “at least 70%”.
